Laboratory results published in patent publication US20240009157A1 (PriZm, LLC, priority 2022, published 2024).

What was measured:
[1] = test system: pediatric patient suffering from Allan-Herndon-Dudley Syndrome; experiment: Dosing regimen for a pediatric subject, T3 serum levels; assay type: in vivo, human
Experimental: Following the first 2 weeks, the daily dosage was increased to 2 mg/kg/day for 2 additional weeks. […] Following the first 2 weeks, the daily dosage was increased to 2 mg/kg/day for 2 additional weeks. […] Following the first 2 weeks, the daily dosage was increased to 2 mg/kg/day for 2 additional weeks.

child having a G-tube = experiment: Effect of DITPA on removal of G-tube; assay type: in vivo, human; conditions: one child who started DITPA while having a G-tube
[2] = test system: MCT8 mutant (mct8−/−) zebrafish; conditions: cited from earlier work
[3] = ambient temperature and light; cited from earlier work
[4] = test system: MCT8-deficient (knockout) mice (Mct8KO); conditions: cited from earlier work
pediatric subjects = conditions: human, in vivo; cited from earlier work

Row | SMILES | T3 serum levels above normal ([1]; 1 mg/kg/day for 2 weeks, then 2 mg/kg/day for 2 additional weeks, above normal) | T3 serum levels below normal ([1]; 1 mg/kg/day for 2 weeks, then 2 mg/kg/day for 2 additional weeks, below normal) | T3 serum levels upon reassessment ([1]; after 1.0 mg/kg/day for 28 days) | T3 serum levels upon reassessment ([1]; after 1.5 mg/kg/day for 28 days) | T3 serum levels upon reassessment, below normal ([1]; after 1.5 mg/kg/day for 28 days, below normal) | T3 serum levels upon reassessment ([1]; after 2.5 mg/kg/day for 28 days) | G-tube (child having a G-tube) | body weight (child having a G-tube) | hypomyelination in the CNS [2] | stability [3] | MCT8 dependence of entry into the brain [4] | TH deficit [4] | measurements and other parameters of TH action [4] | thyrotoxic effect in the liver [4] | thyrotoxic state in the liver (analysis of TH target genes) [4] | effects in pediatric subjects (pediatric subjects)
1 | O=C(O)CCc1cc(I)c(Oc2ccc(O)cc2)c(I)c1 [DITPA, 3,5-diiodothyropropionic acid] | more than 15% | more than 15% | normal | normal | more than 15% | normal | g-tube was removed | gained weight | SRW101 and other TH analogs partially rescued the hypomyelination | stable at ambient temperature and light | independent for entry into the brain | corrects the TH deficit | showed that SRW101 normalized all measurements and other | Mct8KO mice without causing thyrotoxic effect in the liver (Di | amelioration of the thyrotoxic state in the liver (ameliorating | –
2 | O=C(O)Cc1cc(I)c(Oc2ccc(O)c(I)c2)c(I)c1 [TRIAC, triiodothyroacetic acid] | – | – | – | – | – | – | – | – | – | – | – | – | – | – | – | subjects with positive effects.
